Among the data in PubChem BioAssay AID330 (DTP/NCI, 2004) are T/C values, retold here.

“And” between values parts separate entries of the source, which are not always exact repeats. Identical values can stand only once. Toxic doses and inconclusive results are not listed.

The experiment concerns P388 leukemia ip, CD2F1 mice, survival T/C. The experiment in a line: NCI In Vivo Anticancer Drug Screen. Data for tumor model P388 Leukemia (intraperitoneal) in CD2F1 (CDF1) mice. The following applies: endpoint: median survival time, higher = longer survival. In a few lines:
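Mice carrying the transplanted tumor received test compound or vehicle. Survival was recorded in each group, and the value is the treated-group measurement divided by that of the vehicle-treated control group.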

The mark [1] stands for this setting: dose: 50.0 mg/kg/injection, schedule: Q01DX009 (ip), vehicle: saline with Tween-80.
[2] abbreviates: dose: 100.0 mg/kg/injection, schedule: Q01DX009 (ip), vehicle: saline with Tween-80.
Setting [3] is: dose: 200.0 mg/kg/injection, schedule: Q01DX009 (ip), vehicle: saline with Tween-80.
Setting [4] is: dose: 25.0 mg/kg/injection, schedule: Q01DX009 (ip), vehicle: saline with Tween-80.
Setting [5] is: dose: 50.0 mg/kg/injection, schedule: Q01DX009 (ip), vehicle: saline.
[6] abbreviates: dose: 60.0 mg/kg/injection, schedule: Q01DX005 (ip), vehicle: saline with Tween-80.
The mark [7] stands for this setting: dose: 120.0 mg/kg/injection, schedule: Q01DX005 (ip), vehicle: saline with Tween-80.
Where [8] appears, read: dose: 30.0 mg/kg/injection, schedule: Q01DX005 (ip), vehicle: saline.
[9] abbreviates: dose: 12.5 mg/kg/injection, schedule: Q01DX009 (ip), vehicle: saline with Tween-80.

In the case of `CN(C)Cc1c(N=Nc2cccc3c(N=Nc4[nH]c5ccccc5c4CN(C)C)cccc23)[nH]c2ccccc12`, the T/C under setting [1] was 110 % of control, the T/C under setting [2] was 108 % of control and the T/C under setting [3] is 89 % of control.
As to `CC1(C)CC(O)C2OC2C1` (configuration not stated), the T/C (dose: 50.0 mg/kg/injection, schedule: Q01DX005 (ip), vehicle: saline with Tween-80) was 101 % of control; the T/C (dose: 100.0 mg/kg/injection, schedule: Q01DX005 (ip), vehicle: saline with Tween-80) was 108 % of control; the T/C (dose: 200.0 mg/kg/injection, schedule: Q01DX005 (ip), vehicle: saline with Tween-80) is 106 % of control.
As to `CCCCOC1OCN(C)CC1(C)C` (configuration not stated), the T/C is, setting by setting: under setting [4], 98 % of control; under setting [1], 114 % of control.
For `CC(C)(CS)C(=O)O`, the T/C under setting [5] was 103 % of control.
Turning to `CC(=O)[O][Sn]([c]1ccccc1)([c]1ccccc1)[c]1ccccc1`, the T/C was 104 % of control (dose: 0.25 mg/kg/injection, schedule: Q04DX003 (ip), vehicle: saline with Tween-80); 109 % of control (dose: 0.5 mg/kg/injection, schedule: Q04DX003 (ip), vehicle: saline with Tween-80); 100 % of control (dose: 125.0 micrograms/kg/injection, schedule: Q01DX009 (ip), vehicle: saline with Tween-80); 109 % of control (dose: 250.0 micrograms/kg/injection, schedule: Q01DX009 (ip), vehicle: saline with Tween-80); 109 % of control (dose: 500.0 micrograms/kg/injection, schedule: Q01DX009 (ip), vehicle: saline with Tween-80).
On to `CCCCCCCC1C(=O)OC2CC3C(C)=CC(=O)C(O)C3(C)C3C4(O)OCC23C1C(C)C4O` (configuration not stated), for which the T/C is 107 % of control (dose: 1.25 mg/kg/injection, schedule: Q01DX005 (ip), vehicle: Klucel (hydroxypropylcellulose) (HPC)); 108 % of control (dose: 2.5 mg/kg/injection, schedule: Q01DX005 (ip), vehicle: Klucel (hydroxypropylcellulose) (HPC)); 107 % of control and 116 % of control (dose: 5.0 mg/kg/injection, schedule: Q01DX005 (ip), vehicle: Klucel (hydroxypropylcellulose) (HPC)); 117 % of control and 124 % of control (dose: 10.0 mg/kg/injection, schedule: Q01DX005 (ip), vehicle: Klucel (hydroxypropylcellulose) (HPC)).
As for `O=C1C=C(Br)C(=O)c2c1[nH]c(=O)[nH]c2=O`, the T/C is, setting by setting: (dose: 8.0 mg/kg/injection, schedule: Q01DX005 (ip), vehicle: DMSO) 117 % of control; (dose: 16.0 mg/kg/injection, schedule: Q01DX005 (ip), vehicle: DMSO) 107 % of control; (dose: 32.0 mg/kg/injection, schedule: Q01DX005 (ip), vehicle: DMSO) 95 % of control; (dose: 64.0 mg/kg/injection, schedule: Q01DX005 (ip), vehicle: DMSO) 107 % of control.
With `Cc1cc(OCc2nnc3n2S(=O)(=O)c2ccccc2N3C)ccc1Cl`, the T/C runs as follows: under setting [6], 87 % of control; under setting [7], 90 % of control.
For `COC(=O)C1Cc2cncn2C(=O)N1` (configuration not stated), the T/C was 108 % of control (dose: 8.0 mg/kg/injection, schedule: Q01DX009 (ip), vehicle: water); 100 % of control (dose: 16.0 mg/kg/injection, schedule: Q01DX009 (ip), vehicle: water); 103 % of control (dose: 32.0 mg/kg/injection, schedule: Q01DX009 (ip), vehicle: water); 107 % of control (dose: 64.0 mg/kg/injection, schedule: Q01DX009 (ip), vehicle: water).
With `CNC(=O)OCc1nc(SC)n(C)c1COC(=O)NC`, the T/C is 160 % of control (dose: 25.0 mg/kg/injection, schedule: Q01DX005 (ip), vehicle: saline); 166 % of control and 172 % of control and 187 % of control under setting [8]; 158 % of control and 164 % of control and 173 % of control (dose: 34.0 mg/kg/injection, schedule: Q01DX005 (ip), vehicle: saline); 184 % of control and 193 % of control (dose: 50.0 mg/kg/injection, schedule: Q01DX005 (ip), vehicle: saline); 186 % of control and 196 % of control and 200 % of control (dose: 51.0 mg/kg/injection, schedule: Q01DX005 (ip), vehicle: saline); 188 % of control (dose: 77.0 mg/kg/injection, schedule: Q01DX005 (ip), vehicle: saline). Moreover, the T/C (dose: 100.0 mg/kg/injection, schedule: Q01DX005 (ip), vehicle: saline) is 236 % of control.
For `c1cc2ccc3ccc[n+]4c3c2[n+](c1)CC4`, the T/C under setting [5] is 103 % of control.
Consider `O=C(c1ccccc1)N1OC2C=CC1C2` (configuration not stated), for which the T/C by setting is: under setting [9], 100 % of control; under setting [4], 89 % of control; under setting [1], 100 % of control and 103 % of control.
`C[N+]1(C)CCC(Cl)CC1`: the T/C is, setting by setting: (dose: 3.75 mg/kg/injection, schedule: Q01DX005 (ip), vehicle: saline) 104 % of control; (dose: 7.5 mg/kg/injection, schedule: Q01DX005 (ip), vehicle: saline) 103 % of control; (dose: 15.0 mg/kg/injection, schedule: Q01DX005 (ip), vehicle: saline) 99 % of control; under setting [8], 100 % of control and 102 % of control.
In the case of `CCOC(=O)CN=Cc1ccccc1`, the T/C under setting [6] was 107 % of control; the T/C under setting [7] is 108 % of control; the T/C (dose: 240.0 mg/kg/injection, schedule: Q01DX005 (ip), vehicle: saline with Tween-80) is 107 % of control.
As to `N=C(N)c1ccc(C#Cc2ccc(C(=N)N)cc2)cc1`, the T/C (dose: 3.13 mg/kg/injection, schedule: Q01DX009 (ip), vehicle: saline with Tween-80) is 94 % of control; the T/C (dose: 6.25 mg/kg/injection, schedule: Q01DX009 (ip), vehicle: saline with Tween-80) is 92 % of control; the T/C under setting [9] is 95 % of control.
Turning to `C=C(CO)C(=O)OC1CC(=C)C2CC(O)C(=C)C2C2OC(=O)C(=C)C12` (configuration not stated), the T/C (dose: 100.0 mg/kg/injection, schedule: Q01DX001 (ip), vehicle: saline) is 113 % of control; the T/C (dose: 200.0 mg/kg/injection, schedule: Q01DX001 (ip), vehicle: saline) is 99 % of control; the T/C (dose: 400.0 mg/kg/injection, schedule: Q01DX001 (ip), vehicle: saline) is 104 % of control.
On to `CN=C(N)N/N=C/c1c2ccccc2c(C)c2ccccc12`, for which the T/C was 119 % of control (dose: 25.0 mg/kg/injection, schedule: Q04DX002 (ip), vehicle: saline) and 115 % of control (dose: 50.0 mg/kg/injection, schedule: Q04DX002 (ip), vehicle: saline).
As for `Cc1ccc(S(=O)(=O)Nn2nnnc2N)cc1`, the T/C was 102 % of control (dose: 100.0 mg/kg/injection, schedule: Q01DX001 (ip), vehicle: Klucel (hydroxypropylcellulose) (HPC)); 100 % of control (dose: 200.0 mg/kg/injection, schedule: Q01DX001 (ip), vehicle: Klucel (hydroxypropylcellulose) (HPC)); 100 % of control (dose: 400.0 mg/kg/injection, schedule: Q01DX001 (ip), vehicle: Klucel (hydroxypropylcellulose) (HPC)).
Turning to `CCCCCCCCCCCCN(C)S(=O)(=O)c1ccc(Cl)c(N)c1`, the T/C is, setting by setting: (dose: 50.0 mg/kg/injection, schedule: Q04DX003 (ip), vehicle: saline with Tween-80) 95 % of control; (dose: 100.0 mg/kg/injection, schedule: Q04DX003 (ip), vehicle: saline with Tween-80) 100 % of control; (dose: 200.0 mg/kg/injection, schedule: Q04DX003 (ip), vehicle: saline with Tween-80) 95 % of control.
On to `OC1COCCC(O)(CNCc2ccccc2)C1O` (configuration not stated), for which the T/C was 98 % of control under setting [5] and 107 % of control (dose: 100.0 mg/kg/injection, schedule: Q01DX009 (ip), vehicle: saline).
Regarding `CC[As](CC)SC1CC(OC(=O)c2ccccc2)C(OC(=O)c2ccccc2)C(COC(=O)c2ccccc2)O1` (configuration not stated), the T/C under setting [1] is 100 % of control and the T/C under setting [2] was 105 % of control.
With `CCC(C)(OC(C)=O)C(=O)OC1C(=O)OC2CC3C(C)=CC(O)C(O)C3(C)C3C4(O)OCC23C1C(C)C4O` (configuration not stated), the T/C runs as follows: (dose: 0.25 mg/kg/injection, schedule: Q01DX009 (ip), vehicle: saline + alcohol) 103 % of control; (dose: 0.5 mg/kg/injection, schedule: Q01DX009 (ip), vehicle: saline + alcohol) 96 % of control; (dose: 1.0 mg/kg/injection, schedule: Q01DX009 (ip), vehicle: saline + alcohol) 96 % of control; (dose: 2.0 mg/kg/injection, schedule: Q01DX009 (ip), vehicle: saline + alcohol) 96 % of control; (dose: 4.0 mg/kg/injection, schedule: Q01DX009 (ip), vehicle: saline + alcohol) 99 % of control.
For the molecule `Cc1c([N+](=O)[O-])ccn1C`, the T/C under setting [1] is 98 % of control, the T/C under setting [2] is 105 % of control and the T/C under setting [3] is 97 % of control.
